In patent US9655838B2, “Antimicrobial compositions comprising essential oil combinations” (priority 2013, dated 2017):
Like-named read-outs stand apart in the source and are kept apart here.

Columns and labels:
A. viscosus = assay: Determination of MIC of individual essential oils (broth microdilution, O.D. at 610 nm); assay type: cell-based, A. viscosus ATCC 43146; details: for MIC: Actinomyces viscosus
Method: Minimum inhibitory concentration (MIC) is assessed as follows: A 96-well microtiter plate is inoculated with 100 μl of TSB (Tryptic Soy Broth) media in each well. Stock solutions of the active are prepared as required (w/v basis) in percent. The different stock solutions (>1%) are used to achieve the final MIC concentration of the actives. The positive control (Triclosan) is prepared as a 0.1% stock solution. Each active is diluted 1:10 using sterile TSB. 100 μl of the stock solution is added in the first column for the actives and the controls. Transfer 100 μl of the solution from the first column to the next, mix and repeat the transfer to serially dilute 2-fold across the plate. The last 100 μl is discarded. Prepare 0.2-0.3 O.D. activated culture of A. viscosus ATCC 43146 grown in TSB overnight at 37° C. Add 100 μl of the adjusted bacterial culture to each well. Incubate the plates for 24 hours at 37° C. Determine the growth by measuring the O.D. at 610 nm. The data is transferred to an Excel spreadsheet for comparison of the O.D. values. The concentration higher than the lowest concentration with large increment in O.D. is taken as the MIC. Depending on the value obtained the MIC is repeated using higher or lower concentrations of the stock solution. This gives the closest value of the concentration determined by serial dilution at which the microorganism is inhibited (MIC).

[1] = cited from earlier work
[2] = individual essential oils against A. viscosus, 24 hours at 37° C, read-out: MIC value (ppm)
[3] = Table 3, essential oil alone, read-out: Individual MIC (concentration of each essential oil alone necessary to produce the same effect)
[4] = individual essential oils against A. viscosus, 24 hours at 37° C

Compound | MIC (A. viscosus; [2]) | MIC value (ppm) (A. viscosus; [4]) | also measured
OCc1ccccc1 [Benzyl alcohol] | 700 µg/mL |  | 
Cc1ccc(C(C)C)cc1O [Carvacrol, carvacrol] |  |  | MIC (A. viscosus; 24 h, read-out: MIC value (ppm)): 80 µg/mL; MIC (A. viscosus; read-out: Individual MIC (concentration of each essential oil alone necessary to produce the same effect)): 80 µg/mL; Individual MIC (concentration of each essential oil alone necessary to produce the same effect) (A. viscosus; Table 3, essential oil alone): 80 ppm
CC(C)=CCCC(C)=CC=O [Citral] | 250 µg/mL |  | MIC (A. viscosus; [3]): 250 µg/mL
CCCc1ccc(O)c(OC)c1 [Dihydro-eugenol] |  | 500 ppm | 
CC12CCC(CC1)C(C)(C)O2 [Eucalyptol] | 250 µg/mL |  | 
C=CCc1ccc(O)c(OC)c1 [Eugenol] | 2000 µg/mL |  | 
Cc1cc(O)ccc1C(C)C [IPMP (99.8% pure)] |  | 160 ppm | 
COC(=O)c1ccccc1O [Methyl salicylate] | 1000 µg/mL |  | 
Cc1ccc(C(C)C)c(O)c1 [Thymol (98% pure), Thymol] | 900 µg/mL |  | MIC (A. viscosus; [3]): 900 µg/mL
O=C([O-])CC(O)(CC(=O)[O-])C(=O)[O-].O=C([O-])CC(O)(CC(=O)[O-])C(=O)[O-].[Zn+2].[Zn+2].[Zn+2] [Zinc citrate] |  | 160 ppm | 
[O]=[Zn] [Zinc oxide] |  | 625 ppm | 
CC(C)=CCC[C@](C)(O)[C@@H]1CC=C(C)CC1 [bisabolol, α-(−)-bisabolol] |  |  | Solubility in ethanol ([1]; ethanol): soluble; Solubility in water and glycerin ([1]; water and glycerin): almost insoluble
Catechins hydrate |  | 100 ppm | 
α-(±)-bisabolol [Syn. Bisabolol] |  | 125 ppm | Individual MIC (concentration of each essential oil alone necessary to produce the same effect) (A. viscosus; Table 3, essential oil alone): 125 ppm
